Measured values published in ChEMBL document CHEMBL1148775, “Synthesis and in vivo evaluation of fluorine-18 and iodine-123 labeled 2beta-carbo(2-fluoroethoxy)-3beta-(4'-((Z)-2-iodoethenyl)phenyl)nortropane as a candidate serotonin transporter imaging agent” (J Med Chem, 2007).
pKi: −log10 of the molar value.

Assays:
[1] = target: Sodium-dependent dopamine transporter (Homo sapiens, UniProt Q01959); test: Binding affinity to human DAT expressed in HEK293 cells; type: cell-based
[2] = target: Sodium-dependent noradrenaline transporter (Homo sapiens, UniProt P23975); test: Binding affinity to human NET expressed in HEK293 cells; type: cell-based
Sequence of Sodium-dependent noradrenaline transporter (P23975 whole entry): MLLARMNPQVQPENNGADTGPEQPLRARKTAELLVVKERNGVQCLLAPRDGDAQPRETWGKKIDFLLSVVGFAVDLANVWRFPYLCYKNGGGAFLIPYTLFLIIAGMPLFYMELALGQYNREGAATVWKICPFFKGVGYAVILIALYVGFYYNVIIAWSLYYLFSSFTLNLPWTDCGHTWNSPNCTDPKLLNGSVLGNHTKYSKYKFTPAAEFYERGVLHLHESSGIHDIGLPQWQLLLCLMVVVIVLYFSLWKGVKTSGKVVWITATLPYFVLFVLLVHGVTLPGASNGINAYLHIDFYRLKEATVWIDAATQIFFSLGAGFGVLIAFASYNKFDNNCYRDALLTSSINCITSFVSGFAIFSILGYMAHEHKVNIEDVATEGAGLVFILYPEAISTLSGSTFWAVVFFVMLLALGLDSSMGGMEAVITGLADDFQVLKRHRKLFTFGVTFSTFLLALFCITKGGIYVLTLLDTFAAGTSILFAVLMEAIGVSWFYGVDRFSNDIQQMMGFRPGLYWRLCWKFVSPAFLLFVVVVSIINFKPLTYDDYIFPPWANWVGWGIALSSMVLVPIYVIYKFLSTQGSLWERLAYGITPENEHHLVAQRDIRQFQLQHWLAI

[3] = Partition coefficient, log P at pH 7.4; type: physicochemical; conditions: octanol/water
[4] = target: Sodium-dependent serotonin transporter (Homo sapiens, UniProt P31645); test: Binding affinity to human SERT expressed in HEK293 cells; type: cell-based
Sequence of Sodium-dependent serotonin transporter (P31645 whole entry): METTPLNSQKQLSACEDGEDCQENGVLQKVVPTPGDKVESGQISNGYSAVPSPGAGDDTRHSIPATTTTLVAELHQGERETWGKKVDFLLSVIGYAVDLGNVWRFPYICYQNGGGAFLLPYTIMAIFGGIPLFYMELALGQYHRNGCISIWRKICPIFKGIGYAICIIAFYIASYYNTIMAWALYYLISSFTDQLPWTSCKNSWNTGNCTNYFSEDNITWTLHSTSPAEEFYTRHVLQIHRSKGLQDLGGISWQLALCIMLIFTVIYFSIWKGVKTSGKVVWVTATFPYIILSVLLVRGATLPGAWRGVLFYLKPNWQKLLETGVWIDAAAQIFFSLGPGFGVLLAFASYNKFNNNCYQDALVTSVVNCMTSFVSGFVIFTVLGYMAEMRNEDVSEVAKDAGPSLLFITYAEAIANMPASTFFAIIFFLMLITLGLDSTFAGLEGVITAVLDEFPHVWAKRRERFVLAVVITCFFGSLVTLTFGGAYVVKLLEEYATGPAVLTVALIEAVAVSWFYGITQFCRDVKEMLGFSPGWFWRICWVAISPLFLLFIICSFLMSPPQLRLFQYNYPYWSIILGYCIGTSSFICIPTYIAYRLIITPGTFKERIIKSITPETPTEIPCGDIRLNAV

[5] = Ratio of drug level in medulla to cerebellum in cynomolgus monkey after 235 mins; type: ADME, tissue-based, Macaca fascicularis; conditions: in vivo
[6] = Ratio of drug level in caudate to cerebellum in cynomolgus monkey after 235 mins; type: ADME, tissue-based, Macaca fascicularis; conditions: in vivo
[7] = Ratio of drug level in occipital cortex to cerebellum in cynomolgus monkey after 235 mins; type: ADME, tissue-based, Macaca fascicularis; conditions: in vivo
[8] = Ratio of drug level in midbrain to cerebellum in cynomolgus monkey after 235 mins; type: ADME, tissue-based, Macaca fascicularis; conditions: in vivo
[9] = Ratio of drug level in thalamus to cerebellum in cynomolgus monkey after 235 mins; type: ADME, tissue-based, Macaca fascicularis; conditions: in vivo
[10] = Ratio of drug level in putamen to cerebellum in cynomolgus monkey after 235 mins; type: ADME, tissue-based, Macaca fascicularis; conditions: in vivo
[11] = Biodistribution in iv dosed Sprague-Dawley rat cerebellum in presence of citalopram at 6 mg/kg after 60 mins; type: ADME, organism-based; parameters: dose 6 mg/kg, route intravenous; conditions: read-out: Drug uptake
[12] = Biodistribution in iv dosed Sprague-Dawley rat striatum in after 60 mins; type: ADME, organism-based; conditions: read-out: Drug uptake
[13] = Biodistribution in iv dosed Sprague-Dawley rat hypothalamus in presence of reboxetine at 6mg/kg after 60 mins; type: ADME, organism-based; conditions: read-out: Drug uptake
[14] = tested on: Cerebellum; test: Biodistribution in iv dosed Sprague-Dawley rat cerebellum after 5 mins; type: ADME, organism-based; conditions: in vivo
[15] = Biodistribution in iv dosed Sprague-Dawley rat pre frontal cortex in presence of citalopram at 6 mg/kg after 60 mins; type: ADME, organism-based; parameters: dose 6 mg/kg, route intravenous; conditions: prefrontal cortex, read-out: Drug uptake
[16] = Biodistribution in iv dosed Sprague-Dawley rat striatum in presence of citalopram at 6 mg/kg after 60 mins; type: ADME, organism-based; parameters: dose 6 mg/kg, route intravenous; conditions: read-out: Drug uptake
[17] = Biodistribution in iv dosed Sprague-Dawley rat pons after 60 mins; type: ADME, organism-based; conditions: read-out: Drug uptake
[18] = Biodistribution in iv dosed Sprague-Dawley rat pons in presence of RTI-113 at 6 mg/kg after 60 mins; type: ADME, organism-based; parameters: dose 6 mg/kg, route intravenous; conditions: read-out: Drug uptake
[19] = Biodistribution in iv dosed Sprague-Dawley rat pre frontal cortex after 60 mins; type: ADME, organism-based; conditions: prefrontal cortex, read-out: Drug uptake
[20] = Biodistribution in iv dosed Sprague-Dawley rat pons in presence of citalopram at 6 mg/kg after 60 mins; type: ADME, organism-based; parameters: dose 6 mg/kg, route intravenous; conditions: read-out: Drug uptake
[21] = Biodistribution in iv dosed Sprague-Dawley rat occipital cortex in presence of RTI-113 at 6 mg/kg after 60 mins; type: ADME, organism-based; parameters: dose 6 mg/kg, route intravenous; conditions: read-out: Drug uptake
[22] = Biodistribution in iv dosed Sprague-Dawley rat hippocampus in presence of citalopram at 6 mg/kg after 60 mins; type: ADME, organism-based; parameters: dose 6 mg/kg, route intravenous; conditions: read-out: Drug uptake
[23] = Biodistribution in iv dosed Sprague-Dawley rat cerebellum in presence of RTI-113 at 6 mg/kg after 60 mins; type: ADME, organism-based; parameters: dose 6 mg/kg, route intravenous; conditions: read-out: Drug uptake
[24] = Biodistribution in iv dosed Sprague-Dawley rat striatum in presence of RTI-113 at 6 mg/kg after 60 mins; type: ADME, organism-based; parameters: dose 6 mg/kg, route intravenous; conditions: read-out: Drug uptake
[25] = Biodistribution in iv dosed Sprague-Dawley rat occipital cortex after 60 mins; type: ADME, organism-based; conditions: read-out: Drug uptake
[26] = Biodistribution in iv dosed Sprague-Dawley rat pre frontal cortex in presence of reboxetine at 6 mg/kg after 60 mins; type: ADME, organism-based; parameters: dose 6 mg/kg, route intravenous; conditions: prefrontal cortex, read-out: Drug uptake
[27] = Biodistribution in iv dosed Sprague-Dawley rat pre frontal cortex in presence of RTI-113 at 6 mg/kg after 60 mins; type: ADME, organism-based; parameters: dose 6 mg/kg, route intravenous; conditions: prefrontal cortex, read-out: Drug uptake
[28] = Biodistribution in iv dosed Sprague-Dawley rat occipital cortex in presence of citalopram at 6 mg/kg after 60 mins; type: ADME, organism-based; parameters: dose 6 mg/kg, route intravenous; conditions: read-out: Drug uptake
[29] = Biodistribution in iv dosed Sprague-Dawley rat hippocampus after 60 mins; type: ADME, organism-based; conditions: read-out: Drug uptake
[30] = Biodistribution in iv dosed Sprague-Dawley rat occipital cortex in presence of reboxetine at 6 mg/kg after 60 mins; type: ADME, organism-based; parameters: dose 6 mg/kg, route intravenous; conditions: read-out: Drug uptake
[31] = Biodistribution in iv dosed Sprague-Dawley rat hippocampus in presence of reboxetine at 6 mg/kg after 60 mins; type: ADME, organism-based; parameters: dose 6 mg/kg, route intravenous; conditions: read-out: Drug uptake
[32] = Biodistribution in iv dosed Sprague-Dawley rat striatum in presence of reboxetine at 6 mg/kg after 60 mins; type: ADME, organism-based; parameters: dose 6 mg/kg, route intravenous; conditions: read-out: Drug uptake
[33] = Biodistribution in iv dosed Sprague-Dawley rat hypothalamus after 60 mins; type: ADME, organism-based; conditions: read-out: Drug uptake
[34] = Biodistribution in iv dosed Sprague-Dawley rat hypothalamus in presence of RTI-113 at 6 mg/kg after 60 mins; type: ADME, organism-based; parameters: dose 6 mg/kg, route intravenous; conditions: read-out: Drug uptake
[35] = Biodistribution in iv dosed Sprague-Dawley rat cerebellum after 60 mins; type: ADME, organism-based; conditions: read-out: Drug uptake
[36] = Biodistribution in iv dosed Sprague-Dawley rat cerebellum in presence of reboxetine at 6 mg/kg after 60 mins; type: ADME, organism-based; parameters: dose 6 mg/kg, route intravenous; conditions: read-out: Drug uptake
[37] = Biodistribution in iv dosed Sprague-Dawley rat hypothalamus in presence of citalopram at 6 mg/kg after 60 mins; type: ADME, organism-based; parameters: dose 6 mg/kg, route intravenous; conditions: read-out: Drug uptake
[38] = Biodistribution in iv dosed Sprague-Dawley rat hippocampus in presence of RTI-113 at 6 mg/kg after 60 mins; type: ADME, organism-based; parameters: dose 6 mg/kg, route intravenous; conditions: read-out: Drug uptake
[39] = Biodistribution in iv dosed Sprague-Dawley rat pons in presence of reboxetine at 6 mg/kg after 60 mins; type: ADME, organism-based; parameters: dose 6 mg/kg, route intravenous; conditions: read-out: Drug uptake

Sequence of Sodium-dependent dopamine transporter (Q01959 whole entry): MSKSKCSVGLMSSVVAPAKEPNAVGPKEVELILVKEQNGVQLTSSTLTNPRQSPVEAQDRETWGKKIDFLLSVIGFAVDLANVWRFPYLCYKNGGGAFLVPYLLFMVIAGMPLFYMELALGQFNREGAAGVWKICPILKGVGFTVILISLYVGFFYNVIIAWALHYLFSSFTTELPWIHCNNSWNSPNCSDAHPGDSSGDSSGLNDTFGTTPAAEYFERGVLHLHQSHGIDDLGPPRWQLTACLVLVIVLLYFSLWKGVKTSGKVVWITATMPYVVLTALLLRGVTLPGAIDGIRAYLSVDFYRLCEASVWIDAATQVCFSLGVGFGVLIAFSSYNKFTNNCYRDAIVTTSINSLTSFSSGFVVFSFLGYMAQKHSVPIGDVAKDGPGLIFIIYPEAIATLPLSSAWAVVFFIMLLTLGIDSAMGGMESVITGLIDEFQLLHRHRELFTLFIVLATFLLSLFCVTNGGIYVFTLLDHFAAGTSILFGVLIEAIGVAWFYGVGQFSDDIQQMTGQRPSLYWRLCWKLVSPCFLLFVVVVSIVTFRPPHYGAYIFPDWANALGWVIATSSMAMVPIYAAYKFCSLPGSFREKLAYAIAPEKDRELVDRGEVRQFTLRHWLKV

For `O=C(OCCF)C1C2CCC(CC1c1ccc(/C=C\I)cc1)N2` (centres undefined), the pKi [1] was 7.89, the pKi [2] was 7.55 and the logD [3] was 1.8. For the same molecule, the pKi [4] was 10.10.
For `O=C(OCC[18F])C1C2CCC(CC1c1ccc(/C=C\I)cc1)N2` (centres undefined), the Ratio [5] was 3.3, the Ratio [6] was 2.6 and the Ratio [7] was 1.6. It also gave a Ratio [8] of 4.4, a Ratio [9] of 3.3 and a Ratio [10] of 3.8.
`O=C(OCCF)C1C2CCC(CC1c1ccc(/C=C\[123I])cc1)N2` (centres undefined) gave a tissue uptake at 1 h [11] of 0.11 %ID/g, a tissue uptake at 1 h [12] of 0.25 %ID/g and a tissue uptake at 1 h [13] of 0.26 %ID/g. The Drug uptake [14] was 0.24 % ID/g, the tissue uptake at 1 h [15] was 0.17 %ID/g and the tissue uptake at 1 h [16] was 0.15 %ID/g. It also gave a tissue uptake at 1 h [17] of 0.22 %ID/g, a tissue uptake at 1 h [18] of 0.22 %ID/g and a tissue uptake at 1 h [19] of 0.26 %ID/g. The tissue uptake at 1 h [20] was 0.14 %ID/g, the tissue uptake at 1 h [21] was 0.24 %ID/g and the tissue uptake at 1 h [22] was 0.16 %ID/g. For the same molecule, the tissue uptake at 1 h [23] was 0.12 %ID/g, the tissue uptake at 1 h [24] was 0.26 %ID/g and the tissue uptake at 1 h [25] was 0.24 %ID/g. It also gave a tissue uptake at 1 h [26] of 0.28 %ID/g, a tissue uptake at 1 h [27] of 0.28 %ID/g and a tissue uptake at 1 h [28] of 0.16 %ID/g. The tissue uptake at 1 h [29] was 0.24 %ID/g, the tissue uptake at 1 h [30] was 0.23 %ID/g and the tissue uptake at 1 h [31] was 0.23 %ID/g. It also gave a tissue uptake at 1 h [32] of 0.26 %ID/g, a tissue uptake at 1 h [33] of 0.27 %ID/g and a tissue uptake at 1 h [34] of 0.32 %ID/g. The tissue uptake at 1 h [35] was 0.12 %ID/g, the tissue uptake at 1 h [36] was 0.13 %ID/g and the tissue uptake at 1 h [37] was 0.18 %ID/g. For the same molecule, the tissue uptake at 1 h [38] was 0.25 %ID/g and the tissue uptake at 1 h [39] was 0.2 %ID/g.
